The source of these data is US3950525A, “Relaxation of smooth muscle in a mammal” (Pfizer Inc., priority 1975, dated 1976).

Molecules are shown by their SMILES. Structures can show the parent of a compound that is named as a salt.

For test [1], the system named is collagen induced platelet aggregation. As to the kind of experiment: In Vivo Inhibition of Platelet Aggregation (collagen induced aggregation in plasma of dosed dogs). Also on record: species or system mongrel dogs. Particulars: for Inhibition to Collagen, High: high collagen (1:20 dilution); for Inhibition to Collagen, Low: low collagen (1:40-50 dilution). How it is done:
The capacity of the compounds of the present invention to inhibit platelet aggregation in a modified in vivo test is measured by the following procedure: Unanesthetized fasted adult mongrel dogs of either sex are dosed orally (P.O.) or intravenously (I.V.) with the particular test compound. Blood samples are taken at hourly intervals and placed in plastic centrifuge tubes containing 0.1 volume 3% sodium citrate. Platelet-rich plasma is separated by centrifugation at 100 G for 10 minutes at 20° C. and treated with a collagen suspension in saline. The effect of two different levels of collagen concentration are examined; the first is a 1:20 dilution, i.e. 1 ml. of collagen suspension per 20 ml. of platelet-rich plasma (high dose), and the second, a 1:40-50 dilution (low dose). Changes in optical density are then followed with a Spectronic 20 colorimeter attached to a Houston Instrument TY Recorder. Platelet aggregation is indicated by a decrease in optical density. […] Measurements are carried out on the hourly samples, allowing for the determination of a duration of the initial effect.

Test [2] has the same test system. As to the kind of experiment: In Vitro Inhibition of Platelet Aggregation (collagen induced, rabbit platelet-rich plasma). It is filed as cell-based. Particulars: Oryctolagus cuniculus, 10 min; for inhibition at 60 µM: 6 × 10^^-5 mol./l.; for inhibition at 6 µM: 6 × 10^^-6 mol./l.; for inhibition at 600 µM: 6 × 10^^-4 mol./l. As to the method:
The ability of the compounds of the present invention to inhibit platelet aggregation in vitro is measured according to the method of Born, et al., J. Physiol., 168, 178 (1963) and comprises the following procedure: Anesthetized male rabbits are bled from a carotid artery into plastic centrifuge tubes containing 0.1 volume 3% sodium citrate. Platelet-rich plasma is separated by centrifugation at 100 G for 10 minutes at 20° C. […] After 10 minutes of incubation with the platelet-rich plasma at room temperature, collagen, a protein known to cause platelet aggregation, is added (0.27 ml. collagen/4 ml. plasma) and changes in the optical density are followed with a Spectronic 20 colorimeter attached to a Houston Instrument TY Recorder. Platelet aggregation is indicated by a decrease in optical density. The relative potency of the compounds of the present invention are thus rated on their ability to inhibit (percent) collagen induced platelet aggregation.

With `CCN(CC)c1cc(-c2ccc(OC)cc2)ncn1` [Ar=4-CH3OC6H4; R1=C2H5; R2=C2H5; R3=H, 4-diethylamino-6-(p-methoxyphenyl)pyrimidine], in test [1] (10 mg./kg. I.V.), the “Inhibition to Collagen, High” value is on record as “None (none (0-15%))” and the “Inhibition to Collagen, Low” value is recorded as “None (none (0-15%))”. For the same molecule, in test [1] (40 mg./kg. P.O.), the “Inhibition to Collagen, High” value is on record as “Partial (partial (15-95%))” and the “Inhibition to Collagen, Low” value is recorded as “Complete (complete (95-100%))”. Further, the Duration in test [1] (40 mg./kg. P.O., line with high collagen result) is 1 h. The Duration in test [1] (40 mg./kg. P.O., line with low collagen result) is 4 h. Further, in test [2], the inhibition (in general, the relative decrease from the control value, in per cent) at 60 µM came out at 86% and the inhibition at 6 µM is 42%.
As to `c1ccc(-c2cc(N3CCCCC3)ncn2)cc1` [Ar=C6H5; R1,R2=--(CH2)5--; R3=H, 4-(1-Piperidyl)-6-phenylpyrimidine hydrochloride], in test [2], at 600 µM the inhibition was 94%, the inhibition at 60 µM was 61% and the inhibition at 6 µM came out at 60%.
On the same counts, the results for `c1ccc(-c2cc(N3CCCCCC3)ncn2)cc1` [Ar=C6H5; R1,R2=--(CH2)6--; R3=H, 4-(1-Hexahydroazepinyl)-6-phenylpyrimidine hydrochloride] are 99%, 83% and 29%.
Consider `CN(Cc1cccnc1)c1cc(-c2ccccc2)ncn1` [Ar=C6H5; R1=3-picolyl; R2=CH3; R3=H, 4-[Methyl(3-pyridylmethyl)amino]-6-phenylpyrimidine dihydrochloride], for which, in test [2], at 600 µM the inhibition was 99% and at 60 µM the inhibition was 17%.
As for `c1ccc(-c2cc(NCc3cccnc3)ncn2)cc1` [Ar=C6H5; R1=3-picolyl; R2=H; R3=H, 4-(3-Pyridylmethylamino)-6-phenylpyrimidine dihydrochloride], in test [2], testing at 600 µM gave an inhibition of 98%, the inhibition at 60 µM was found to be 31% and the inhibition at 6 µM was found to be 12%.
Consider `CN(C)CCNc1cc(-c2ccccc2)ncn1` [Ar=C6H5; R1=(CH3)2N(CH2)2; R2=H; R3=H], for which, in test [2], the inhibition at 600 µM amounted to 99% and the inhibition at 60 µM worked out at 30%.
Regarding `CCc1c(-c2ccccc2)ncnc1N(CC)CC` [Ar=C6H5; R1=C2H5; R2=C2H5; R3=C2H5, 4-Diethylamino-5-ethyl-6-phenylpyrimidine Hydrochloride], the inhibition at 6 µM in test [2] was 48%.
On the same count and under the same terms, for `CCN(CC)c1ncnc(-c2ccccc2)c1C` [Ar=C6H5; R1=C2H5; R2=C2H5; R3=CH3, 4-diethylamino-5-methyl-6-phenylpyrimidine] the value was 80%; for `CCN(CC)c1ncnc(-c2ccccc2)c1C(C)C` [Ar=C6H5; R1=C2H5; R2=C2H5; R3=i-C3H7], 63%; for `CCCc1c(-c2ccccc2)ncnc1N(CC)CC` [Ar=C6H5; R1=C2H5; R2=C2H5; R3=n-C3H7], 55%.
On to `CCNc1cc(-c2ccccc2)ncn1` [Ar=C6H5; R1=C2H5; R2=H; R3=H, 4-ethylamino-6-phenylpyrimidine], for which, in test [2], the inhibition at 600 µM was 99%, testing at 60 µM gave an inhibition of 91% and the inhibition at 6 µM worked out at 99%.
For `CCN(CC(F)(F)F)c1cc(-c2ccccc2)ncn1` [Ar=C6H5; R1=CF3CH2; R2=C2H5; R3=H, 4-[Ethyl(2,2,2-trifluoroethyl)amino]-6-phenylpyrimidine hydrochloride], in test [2], 600 µM produced 65% inhibition, the inhibition at 60 µM stood at 39% and 6 µM produced 34% inhibition.
As for `Cl.FC(F)(F)CNc1cc(-c2ccccc2)ncn1` [Ar=C6H5; R1=CF3CH2; R2=H; R3=H, 4-(2,2,2-Trifluoroethylamino)-6-phenylpyrimidine hydrochloride], in test [1] (10 mg./kg. I.V.), the Duration was determined as 3 h and the “Inhibition to Collagen, High” value was “Complete (complete (95-100%))”. In test [1] (25 mg./kg. P.O.), the Duration was determined as 3 h and the “Inhibition to Collagen, High” value was “Partial (partial (15-95%))”. Also, in test [1] (35 mg./kg. P.O.), the Duration was 4 h; the “Inhibition to Collagen, High” value is listed as “Complete (complete (95-100%))”; the “Inhibition to Collagen, Low” value is listed as “Complete (complete (95-100%))”. Besides, in test [2], at 60 µM the inhibition was 83% and at 6 µM the inhibition was 32%.
In the case of `CCc1c(-c2ccccc2)ncnc1N(C)C` [Ar=C6H5; R1=CH3; R2=CH3; R3=C2H5], in test [2], the inhibition at 6 µM was 50%.
In test [2], `CN(C)c1cc(-c2ccccc2)ncn1` [Ar=C6H5; R1=CH3; R2=CH3; R3=H] registered an inhibition at 600 µM of 99% and an inhibition at 60 µM of 55%.
As for `CCCc1c(-c2ccccc2)ncnc1N(C)C` [Ar=C6H5; R1=CH3; R2=CH3; R3=n-C3H7], in test [2], the inhibition at 6 µM was found to be 40%.
Take `CNc1cc(-c2ccccc2)ncn1` [Ar=C6H5; R1=CH3; R2=H; R3=H]: in test [2], the inhibition at 600 µM was 99% and testing at 60 µM gave an inhibition of 66%.
On the same counts, the results for `Nc1cc(-c2ccccc2)ncn1` [Ar=C6H5; R1=H; R2=H; R3=H, 4-amino-6-phenylpyrimidine] are 75% and 65%.
Take `CCN(CCO)c1cc(-c2ccccc2)ncn1.Cl` [Ar=C6H5; R1=HO(CH2)2; R2=C2H5; R3=H, 4-[Ethyl(2-hydroxyethyl)amino]-6-phenylpyrimidine hydrochloride]: in test [1] (10 mg./kg. I.V.), the Duration stood at 3 h; the “Inhibition to Collagen, High” value is on record as “Complete (complete (95-100%))”; the “Inhibition to Collagen, Low” value is “Complete (complete (95-100%))”. Besides, in test [1] (25 mg./kg. P.O.), the Duration was 2 h; the “Inhibition to Collagen, High” value is “Complete (complete (95-100%))”; the “Inhibition to Collagen, Low” value is given as “Complete (complete (95-100%))”. In test [2], this molecule displayed an inhibition at 600 µM of 99%, an inhibition at 60 µM of 97% and an inhibition at 6 µM of 35%.
On to `CN(CCO)c1cc(-c2ccccc2)ncn1` [Ar=C6H5; R1=HO(CH2)2; R2=CH3; R3=H, 4-[Methyl(2-hydroxyethyl)amino]-6-phenylpyrimidine hydrochloride], for which, in test [2], the inhibition at 600 µM was 99%, at 60 µM the inhibition was 99% and at 6 µM the inhibition was 28%.
On to `OCCN(CCO)c1cc(-c2ccccc2)ncn1` [Ar=C6H5; R1=HO(CH2)2; R2=HO(CH2)2; R3=H, 4-[Bis(2-hydroxyethyl)amino]-6-phenylpyrimidine hydrochloride], for which, in test [2], the inhibition at 600 µM came out at 84% and 60 µM produced 27% inhibition.
In test [2], `CC(C)Nc1cc(-c2ccccc2)ncn1` [Ar=C6H5; R1=i-C3H7; R2=H; R3=H] came in with an inhibition at 60 µM of 88% and an inhibition at 6 µM of 29%.
On the same counts, the results for `CC(C)CNc1cc(-c2ccccc2)ncn1` [Ar=C6H5; R1=i-C4H9; R2=H; R3=H] are 82% and 17%.
In test [2], `CC(C)CN(CC(C)C)c1cc(-c2ccccc2)ncn1` [Ar=C6H5; R1=i-C4H9; R2=i-C4H9; R3=H] displayed an inhibition at 600 µM of 35%, an inhibition at 60 µM of 24% and an inhibition at 6 µM of 10%.
In test [2], `CCCN(CC)c1cc(-c2ccccc2)ncn1` [Ar=C6H5; R1=n-C3H7; R2=C2H5; R3=H, 4-(ethyl-n-propylamino)-6-phenylpyrimidine] had an inhibition at 600 µM of 99%, an inhibition at 60 µM of 86% and an inhibition at 6 µM of 79%.
In test [2], `CCCN(C)c1cc(-c2ccccc2)ncn1` [Ar=C6H5; R1=n-C3H7; R2=CH3; R3=H] yielded an inhibition at 60 µM of 47% and an inhibition at 6 µM of 39%.
With `CCCN(CCC)c1ncnc(-c2ccccc2)c1CC` [Ar=C6H5; R1=n-C3H7; R2=n-C3H7; R3=C2H5], the inhibition at 6 µM in test [2] was determined as 5%.
On the same count and under the same terms, for `CCCN(CCC)c1ncnc(-c2ccccc2)c1C` [Ar=C6H5; R1=n-C3H7; R2=n-C3H7; R3=CH3] the value was 11%.
Take `CCCN(CCC)c1cc(-c2ccccc2)ncn1` [Ar=C6H5; R1=n-C3H7; R2=n-C3H7; R3=H]: in test [2], the inhibition at 600 µM was determined as 83%, the inhibition at 60 µM was found to be 49% and at 6 µM the inhibition was 41%.
Take `CCCCNc1cc(-c2ccccc2)ncn1` [Ar=C6H5; R1=n-C4H9; R2=H; R3=H]: in test [2], the inhibition at 60 µM stood at 42% and the inhibition at 6 µM stood at 30%.
Taken in the same sequence, the figures for `CCCCN(CCCC)c1cc(-c2ccccc2)ncn1` [Ar=C6H5; R1=n-C4H9; R2=n-C4H9; R3=H] were 56% and 35%.
